Read-outs that look alike come from different tables or passages of the source. Ends that are not written are not given here.
Assays:
[1] = Layer thickness formation (binding) on the phospho-tyrosine-AMD sensor surface, RIfS; settings: for Optical layer thickness (increase): Hepes buffer pH 7.40, Raytide EL or antibody 1.0 μg/50 μl, kinase 1 Unit/50 μl
Protocol: (§1) A conventional aminodextrane (AMD) sensor or a diamino PEG 2000 sensor is used (e.g. Schütz A., 2000; a) Piehler J., et al., 1996; Universität Tübingen, Inst. f. Physikalische and Theoretische Chemie, Germany.)
(§2) 20 μl aliquots of the final solution are immediately added drop by drop to the sensor surface which is about 1 cm^2 in size, and incubated for 8 hours under DMF chamber saturation. Then the sensor is rinsed with DMF and dried in the air.
The buffer used is p60c-src-kinase buffer, pH=7.40, with the final concentrations of 50 mM of Hepes and 30 mM of magnesium chloride in the incubation mixture.
The layer thickness formation of p60c-src-kinase (1 Unit/50 μl) in the presence of Brij 35 is investigated. […] Increasing concentrations of Brij 35 (% v/v) are added to the buffer.
Use of alternative substrates, kinase and sensors in a process according to the invention. […] The buffer used is Hepes buffer pH=7.40 with 50 mM of Hepes and 30 mM of magnesium chloride. The buffer contains 0.5% v/v mercaptoethanol, 0.05% v/v Brij 35 and 10 μg/50 μl albumin.
First, the antibody, then the kinase and the substrate are measured on their own in order to be able to evaluate any non-specific binding.

[2] = Layer thickness formation (binding) on the phospho-tyrosine-diamino-PEG 2000 sensor surface, RIfS; settings: for Optical layer thickness (non-specific binding) / Optical layer thickness (binding): EGF-RK buffer
Protocol: as §1, §2

[3] = target: EGF-receptor kinase (EGF-RK) (Homo sapiens, UniProt P00533); settings: for Optical layer thickness: PGT 10 μg/50 μl, EGF-RK 1 Unit/50 μl, EGF-RK buffer with Brij 35
Protocol: The quantity depends mainly on the volumes which are still to be pipetted, the buffer being intended to make the volume of the phosphorylation assay up to the total of 100 μl.
Then 10 μl of 10% (v/v) DMSO solution are added, or if a substance is to be tested for possible enzyme-modulating properties, 10 μl of a test substance, i.e. a possible inhibitor or activator, dissolved in 10% (v/v) of DMSO, are pipetted in.
If an enzymatic reaction is to take place, the enzyme is added at this stage.
Then the substrate is added. The amounts of the substrates Poly-(Glu, Tyr) 4:1, (SEQ ID NO.:2) M-2165 and (SEQ ID NO.:3) Raytide™ EL used are specified in each case.
The reaction of phosphorylation is started here by the addition of 10 μl of the 1 mM ATP solution.
The incubation time is 30 minutes at +30° C., for example.
After the end of the incubation period, 20 μl of antibody solution (1.6.) are pipetted in, for example. The receptor, in this case the antibody, is used in excess. The amount which corresponds to an excess can very easily be determined by anyone skilled in the art by means of experiments on binding to a sensor surface to which a substance with a receptor binding site is coupled, with increasing amounts of receptor. In the case of reactions of phosphorylation, increasing amounts of receptor are used with a constant amount of substrate and kinase.
The incubation time with the antibody may be, for example, 30 minutes at ambient temperature.
After the end of the incubation period 50 μl of incubation mixture are taken and pipetted into the prepared measuring cell with the sensor to whose surface is coupled a substance with a receptor binding site.
The layer thickness of the sensor is measured, for example, by Reflectometric Interference Spectroscopy (RIfS) using a SPEKOL 1100 simultaneous spectral photometer made by Messrs Zeiss Jena, modified according to Schmitt et al. 1997.
The receptor (in this case the antibody) is used in excess, so that even if there is a total enzymatic reaction (in this case phosphorylation) of the substrate at least a slight binding signal will still be obtained by the binding of the receptor (antibody) to the sensor surface.
The reaction of phosphorylation is started by the addition of ATP.
At the start of the experiment a control and a complete phosphorylation without the addition of inhibitor are carried out.

EGF-RK = EGF-RK (Homo sapiens, UniProt P00533); settings: cited from earlier work
[4] = Table 8: EGF-RK buffer with Brij 35, substrate 10 μg/50 μl, EGF-RK 0.1 Unit/50 μl, EGF 0.5 μg/50 μl

EGF-receptor kinase (EGF-RK), sequence (P00533 25-1210): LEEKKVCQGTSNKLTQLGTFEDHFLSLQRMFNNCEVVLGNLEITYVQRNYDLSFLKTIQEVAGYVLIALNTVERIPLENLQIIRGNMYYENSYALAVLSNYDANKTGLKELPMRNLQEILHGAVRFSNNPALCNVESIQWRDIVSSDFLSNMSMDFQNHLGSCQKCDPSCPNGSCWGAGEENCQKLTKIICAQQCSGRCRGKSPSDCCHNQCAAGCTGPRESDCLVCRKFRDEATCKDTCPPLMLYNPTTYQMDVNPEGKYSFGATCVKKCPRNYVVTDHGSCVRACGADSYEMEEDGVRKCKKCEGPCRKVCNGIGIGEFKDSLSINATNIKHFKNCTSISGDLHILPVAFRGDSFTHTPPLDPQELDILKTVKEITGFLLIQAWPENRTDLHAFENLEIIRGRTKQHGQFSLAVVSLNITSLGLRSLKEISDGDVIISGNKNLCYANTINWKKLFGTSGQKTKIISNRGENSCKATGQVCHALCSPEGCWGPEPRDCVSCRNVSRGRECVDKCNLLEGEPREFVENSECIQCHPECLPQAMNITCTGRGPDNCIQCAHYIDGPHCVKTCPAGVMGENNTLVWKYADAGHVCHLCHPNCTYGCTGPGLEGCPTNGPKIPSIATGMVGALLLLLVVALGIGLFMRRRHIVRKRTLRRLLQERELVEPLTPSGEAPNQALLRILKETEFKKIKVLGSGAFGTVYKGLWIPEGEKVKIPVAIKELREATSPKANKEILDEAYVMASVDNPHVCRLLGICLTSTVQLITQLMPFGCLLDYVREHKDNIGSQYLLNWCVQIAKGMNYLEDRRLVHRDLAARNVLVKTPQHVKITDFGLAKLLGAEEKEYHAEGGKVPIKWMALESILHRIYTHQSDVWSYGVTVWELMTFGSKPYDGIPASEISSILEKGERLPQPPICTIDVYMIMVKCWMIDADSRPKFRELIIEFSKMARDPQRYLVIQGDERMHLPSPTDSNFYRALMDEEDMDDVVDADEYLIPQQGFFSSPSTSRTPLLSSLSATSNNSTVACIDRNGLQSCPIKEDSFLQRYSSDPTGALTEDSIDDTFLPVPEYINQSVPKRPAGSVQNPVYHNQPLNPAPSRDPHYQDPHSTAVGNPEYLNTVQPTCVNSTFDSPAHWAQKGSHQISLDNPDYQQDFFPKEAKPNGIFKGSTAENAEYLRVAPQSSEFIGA
EGF-RK, sequence (P00533 25-1210): as above

**Q.** For “Ac-Ile-Tyr-Gly-Glu-Phe-NH2 (Ac-IYGEF-NH2; also: phosphorylated, site not given here) [M-2165, Oligopeptide kinase substrate, Messrs; Bachem]”, which “Optical layer thickness, component on its own” value ([1]; Table 13: Hepes buffer pH 7.40, 0.5% mercaptoethanol, 0.05% Brij 35, albumin 10 μg/50 μl, M-2165 10 μg/50 μl, p60c-src-kinase 4 Units/50 μl) is on record?
**A.** 0.230 nm

**Q.** And the “Optical layer thickness, component on its own” value ([2]; Table 13 a: Hepes buffer pH 7.40, 0.5% mercaptoethanol, 0.05% Brij 35, albumin 10 μg/50 μl, M-2165 10 μg/50 μl, p60c-src-kinase 2 Units/50 μl)?
**A.** 0.285 nm

**Q.** Which results are given for “Lys-Lys-Lys-Gly-Pro-Trp-Leu-Glu-Glu-Glu-Glu-Glu-Ala-Tyr-Gly-Trp-Leu-Asp-Phe (KKKGPWLEEEEEAYGWLDF; also: phosphorylated modified substrate, site not given here) [Raytide ™ EL, Protein-tyrosine-kinase substrate, Messrs; Calbiochem]”?
**A.** Optical layer thickness (increase) ([1]; with 0.001% Brij 35 (v/v)): 0.067 nm; Optical layer thickness (increase) ([1]; with 0.002% Brij 35 (v/v)): 0.083 nm; Optical layer thickness (increase) ([1]; with 0.01% Brij 35 (v/v)): 0.000 nm; Optical layer thickness (increase) ([1]; with 0.02% Brij 35 (v/v)): 0.000 nm; Optical layer thickness (increase) ([1]; with 0.1% Brij 35 (v/v)): 0.000 nm; Optical layer thickness (increase) ([1]; with 0.2% Brij 35 (v/v)): 0.000 nm; Optical layer thickness (increase) ([1]; without Brij 35): 0.169 nm; Optical layer thickness, component on its own ([2]; Table 12: EGF-RK buffer with Brij 35, Raytide EL 2 μg/50 μl, EGF-RK 0.5 Units/50 μl): 0.127 nm

**Q.** With COC(=O)/C=C/c1cc(O)ccc1O [erbstatin analogue, Erbstatin Analogue] as the molecule, how does the Optical layer thickness ([3]; 10^-3M inhibitor) read?
**A.** 1.170 nm

**Q.** And the Optical layer thickness ([3]; 10^-4M inhibitor)?
**A.** 0.728 nm

**Q.** And the Optical layer thickness ([3]; 10^-5M inhibitor)?
**A.** 0.702 nm

**Q.** And the Optical layer thickness ([3]; 10^-6M inhibitor)?
**A.** 0.442 nm

**Q.** And the Optical layer thickness ([3]; 10^-7M inhibitor)?
**A.** 0.489 nm

**Q.** What about the Optical layer thickness ([3]; 10^-8M inhibitor) of the same molecule?
**A.** 0.526 nm

**Q.** What about the “Inhibition of phosphorylation” value ([3]; up to 10^-3M) of the same molecule?
**A.** incomplete even at higher concentrations

**Q.** With Poly-(Glu, Tyr) 4:1 [PGT] as the molecule, how does the “Optical layer thickness (non-specific binding)” value ([2]; 0.5 μg PGT) read?
**A.** 0.064 nm

**Q.** What about the “Optical layer thickness (non-specific binding)” value ([2]; 1.0 μg PGT) of the same molecule?
**A.** 0.026 nm

**Q.** And the “Optical layer thickness (non-specific binding)” value ([2]; 2.0 μg PGT)?
**A.** 0.000 nm

**Q.** And the “Optical layer thickness (non-specific binding)” value ([2]; 5.0 μg PGT)?
**A.** 0.052 nm

**Q.** What about the “Optical layer thickness (non-specific binding)” value ([2]; 10 μg PGT) of the same molecule?
**A.** 0.065 nm

**Q.** What about the “Optical layer thickness (non-specific binding)” value ([2]; 20 μg PGT) of the same molecule?
**A.** 0.054 nm

**Q.** What about the “Optical layer thickness (non-specific binding)” value ([2]; 50 μg PGT) of the same molecule?
**A.** 0.113 nm

**Q.** And the “Optical layer thickness (non-specific binding)” value ([2]; 100 μg PGT)?
**A.** 0.084 nm

**Q.** And the “Optical layer thickness, component on its own” value [2, 4]?
**A.** 0 nm

**Q.** And the “Optical layer thickness, component on its own” value ([2]; Table 9: EGF-RK buffer with Brij 35, substrate 10 μg/50 μl, EGF-RK 2 Units/50 μl)?
**A.** 0 nm

**Q.** What does the source list for “EGF: Epidermal Growth Factor, activator for phosphorylation with EGF-RK”?
**A.** Optical layer thickness (binding) ([2]; EGF 0.5 Units + Brij 35 (0.01% v/v)): 0.320 nm; Optical layer thickness (binding) ([2]; EGF 0.5 Units, no Brij 35): 0.814 nm; Optical layer thickness (binding) ([2]; EGF 1.0 Units + Brij 35 (0.01% v/v)): 0.484 nm; Optical layer thickness (binding) ([2]; EGF 1.0 Units, no Brij 35): 0.833 nm; Optical layer thickness, component on its own [2, 4]: 0.355 nm

**Q.** With O=CN/C=C/c1cc(O)ccc1O [Erbstatin] as the molecule, how does the “Inhibitor strength described in the literature” value (EGF-RK) read?
**A.** weak inhibitor
